Test results taken from ChEMBL document CHEMBL1127776, “Stereospecific synthesis of a pentopyranosyl analogue of d4T monophosphate” (Bioorg Med Chem Lett, 1994).
Active and inactive are the calls of the source.

Legend:
Format in all cases: functional, cell-based
Settings in all cases: Homo sapiens
[1] = tested on: CCRF-CEM; experiment: Compound was tested for the inhibition of HIV-2 replication in CEM cell culture up to 100 ug/mL concentration; Not active
[2] = tested on: CCRF-CEM; experiment: Compound was tested for the inhibition of HIV-1 replication in CEM cell culture up to 100 ug/mL concentration; Not active
[3] = tested on: CCRF-CEM; experiment: Compound was tested for toxicity to the CEM cell monolayers; No toxicity

Cc1cn(C2C=CC(OCP(=O)(O)O)CO2)c(=O)[nH]c1=O (stereo not drawn)
inactive: inhibition [1] | inhibition [2] | Toxicity [3] Not toxic
